{"source": "patent US20210060165A1", "about": "“Light-Controlled Antibacterial Agent Composed of Linear Cationic Oligopeptide and Multi-arm B-Cyclodextrin” (JILIN UNIVERSITY, priority 2019, published 2021)", "assay_in_all_cases": "growth curve (OD600) in LB liquid culture medium", "format_in_all_cases": "cell-based", "settings_in_all_cases": "separate or as aggregates", "key": {"[1]": {"system": "Bacillus subtilis", "procedure": "(§1) Preparation of LB liquid culture medium: dissolving 1-10 g of peptone, 0.5-5 g of yeast extract and 1-10 g of sodium chloride in 100-980 mL of redistilled water, and performing high temperature sterilization on same at 121° C. for 20 min to obtain a fresh LB liquid culture medium.\n(§2) Picking bacterial strains (gram-negative bacteria such as Escherichia coli, […], Pseudomonas aeruginosa, and gram-positive bacteria such as Staphylococcus aureus) into 20-30 mL of (containing 20-25 μL of ampicillin) the above fresh LB liquid culture medium, placing in a constant temperature shaker with a revolution of 180 rpm and a temperature of 37° C. for culture for 11-15 h, thus obtaining the LB culture solution containing bacterial strains; then diluting the above LB culture solution containing bacteria strains with a blank LB liquid culture medium to an OD600 (OD600 refers to the light absorption value of the bacteria strain culture solution at 600 nm) about 0.035.\n(§3) Antibacterial property of cross-linked aggregates in LB liquid culture medium: adding the diluted LB culture solution (the LB culture solution contains bacteria and ampicillin) containing bacterial strains into a clean test tube, adding the aqueous solution of the light-controlled antibacterial agent composed of the linear cationic oligopeptide and multi-arm β-cyclodextrin into the test tube, and controlling the concentration of the final linear cationic oligopeptide to 15-60 μM. Placing the prepared sample in the constant temperature shaker at 37° C. for culture, and controlling the revolution of the shaker to be 180 rpm. Determining the corresponding optical density (OD600) of the culture solution at different times (0-540 min) with a nucleic acid protein analyzer to evaluate the antibacterial activity of the cross-linked aggregates.\n(§4) Preparation of LB liquid culture medium: dissolving 10 g of peptone, 5 g of yeast extract and 10 g of sodium chloride in 980 mL of redistilled water, and performing high temperature sterilization on same at 121° C. for 20 min to obtain a fresh LB liquid culture medium. Picking Escherichia coli (BL21-gold (DE3),) into 25 mL (containing 25 μL of ampicillin) of the above fresh LB liquid culture medium, placing in a constant temperature shaker with a revolution of 180 rpm and a temperature of 37° C. for culture for 12 h. Then diluting the obtained Escherichia coli culture solution with the fresh LB liquid culture medium to an OD600 of 0.035.\n(§5) respectively taking 4 parts of the sterilized Escherichia coli culture solution (2.0 mL each) into 4 sterile test tubes, numbered as 1, 2, 3, and 4. […]"}, "[2]": {"system": "Escherichia coli (BL21-gold (DE3))", "procedure": "as §1, §2, §3, §4, §5"}, "[3]": {"system": "Pseudomonas aeruginosa", "procedure": "as §1, §2, §3, §4, §5"}, "[4]": {"system": "Staphylococcus aureus", "procedure": "as §1, §2, §3, §4, §5"}, "[5]": {"settings": "Embodiment 2, 37° C., peptide 30 μM, cyclodextrin 30 μM"}, "[6]": {"settings": "Embodiment 9, 37° C., azoKVKVKVKazo-NH2 30 μM, three-arm β-cyclodextrin 10 μM, two-arm β-cyclodextrin 15 μM"}, "[7]": {"settings": "Embodiment 4, 37° C., azoRARARVRazo-NH2 30 μM, three-arm β-cyclodextrin 20 μM"}, "[8]": {"settings": "Embodiment 6, 37° C., azoKAKAKazo-NH2 60 μM, three-arm β-cyclodextrin 40 μM"}, "[9]": {"settings": "Embodiment 3, 37° C., azoKLKLKLKazo-NH2 30 μM, three-arm β-cyclodextrin 20 μM"}, "[10]": {"settings": "Embodiment 7, 37° C., azoRARVRazo-NH2 50 μM, three-arm β-cyclodextrin 33.33 μM"}, "[11]": {"settings": "Embodiment 5, 37° C., azoRIRIRARazo-NH2 20 μM, two-arm β-cyclodextrin 20 μM"}}, "data": [{"smiles": "OCC1OC2OC3C(CO)OC(OC4C(CO)OC(OC5C(Cn6cc(-c7cc(-c8cn(CC9OC%10OC%11C(CO)OC(OC%12C(CO)OC(OC%13C(CO)OC(OC%14C(CO)OC(OC%15C(CO)OC(OC%16C(CO)OC(OC9C(O)C%10O)C(O)C%16O)C(O)C%15O)C(O)C%14O)C(O)C%13O)C(O)C%12O)C(O)C%11O)nn8)cc(-c8cn(CC9OC%10OC%11C(CO)OC(OC%12C(CO)OC(OC%13C(CO)OC(OC%14C(CO)OC(OC%15C(CO)OC(OC%16C(CO)OC(OC9C(O)C%10O)C(O)C%16O)C(O)C%15O)C(O)C%14O)C(O)C%13O)C(O)C%12O)C(O)C%11O)nn8)c7)nn6)OC(OC6C(CO)OC(OC7C(CO)OC(OC8C(CO)OC(OC1C(O)C2O)C(O)C8O)C(O)C7O)C(O)C6O)C(O)C5O)C(O)C4O)C(O)C3O", "note": "(stereo not drawn) [three-arm β-cyclodextrin]", "values": [{"measurement": "optical density (OD600) at end of culture", "setting": "[1]; [5]", "value": 1.15}, {"measurement": "optical density (OD600) at start of culture", "setting": "[1]; [5]", "value": 0.036}, {"measurement": "optical density (OD600) at end of culture", "setting": "[1]; [6]", "value": 1.23}, {"measurement": "optical density (OD600) at start of culture", "setting": "[1]; [6]", "value": 0.039}, {"measurement": "optical density (OD600) at start of incubation", "setting": "[2]; Embodiment 1, 37° C., 0 min, azoKVKVKVKazo-NH2 30 μM, three-arm β-cyclodextrin 20 μM", "value": 0.043}, {"measurement": "optical density (OD600) at end of incubation", "setting": "[2]; Embodiment 1, 37° C., 9 h (540 min), azoKVKVKVKazo-NH2 30 μM, three-arm β-cyclodextrin 20 μM", "value": 1.61}, {"measurement": "optical density (OD600) at end of culture", "setting": "[3]; [7]", "value": 1.15}, {"measurement": "optical density (OD600) at start of culture", "setting": "[3]; [7]", "value": 0.039}, {"measurement": "optical density (OD600) at end of culture", "setting": "[3]; [8]", "value": 1.25}, {"measurement": "optical density (OD600) at start of culture", "setting": "[3]; [8]", "value": 0.035}, {"measurement": "optical density (OD600) at end of culture", "setting": "[4]; [9]", "value": 1.25}, {"measurement": "optical density (OD600) at start of culture", "setting": "[4]; [9]", "value": 0.043}, {"measurement": "optical density (OD600) at end of culture", "setting": "[4]; [10]", "value": 1.22}, {"measurement": "optical density (OD600) at start of culture", "setting": "[4]; [10]", "value": 0.041}]}, {"smiles": "OCC1OC2OC3C(CO)OC(OC4C(CO)OC(OC5C(Cn6cc(COc7ccc(OCc8cn(CC9OC%10OC%11C(CO)OC(OC%12C(CO)OC(OC%13C(CO)OC(OC%14C(CO)OC(OC%15C(CO)OC(OC%16C(CO)OC(OC9C(O)C%10O)C(O)C%16O)C(O)C%15O)C(O)C%14O)C(O)C%13O)C(O)C%12O)C(O)C%11O)nn8)cc7)nn6)OC(OC6C(CO)OC(OC7C(CO)OC(OC8C(CO)OC(OC1C(O)C2O)C(O)C8O)C(O)C7O)C(O)C6O)C(O)C5O)C(O)C4O)C(O)C3O", "note": "(stereo not drawn) [two-arm β-cyclodextrin]", "values": [{"measurement": "optical density (OD600) at end of culture", "setting": "[2]; [11]", "value": 1.21}, {"measurement": "optical density (OD600) at start of culture", "setting": "[2]; [11]", "value": 0.034}]}]}
